Laboratory results taken from US9682931B2, “Aryloyl(oxy or amino)pentafluorosulfanylbenzene compound, pharmaceutically acceptable salt thereof, and prodrugs thereof” (UBE INDUSTRIES, LTD., priority 2013, dated 2017).
Converted amounts (≈) assume the structure as drawn.

How the values were obtained:
MCF-7 (breast cancer) = assay: Evaluation of anticancer action, cell proliferation inhibition (WST-8), MCF-7; type: cell-based; conditions: Homo sapiens, MCF7, MCF-7, about 72 hours
From the text: (§1) The cell proliferation inhibitory effects of a test substance (Compound 3) on various types of cancer cells were examined.
(§2) 1. Measuring Reagent and Analysis Software
(§3) WST-8 Kit (Cat. No. 260-96165 or 260-96162; manufactured by Kishida Chemical Co., Ltd.) for counting cell number
(§4) Software for graph making and measurement of GI50 value: XLfit 5.2 (ID Business Solutions Ltd.)
(§5) 2. Cells and Culture Conditions
(§6) Five types of cells and medium (the following Table) were used. The cells were obtained from the Research Resource Bank of the Human Sciences Foundation.
(§7) On the day when a sample was to be added, the sample was weighed and a medium for each type of cells was added so as to be 500 μg/mL. Sonication was performed while warming at 37° C. for 60 minutes to be dissolved. Then, filtration was performed by a 0.22 m-filter. The 500 μg/mL-solution was diluted with the medium for each type of cells to prepare 200 μg/mL, 60 μg/mL, 20 μg/mL, 6 μg/mL, 2 μg/mL, 0.6 μg/mL and 0.2 μg/mL solutions, which were specified as two-fold concentration test solutions (the final concentrations of the test substance were 250 µg/mL, 100 μg/mL, 30 μg/mL, 10 μg/mL, 3 μg/mL, 1 μg/mL, 0.3 μg/mL, […], respectively). […]
(§8) (8) Absorbance values at 450 nm and 650 nm were measured to calculate O.D. 450 and O.D. 650. […]
(§9) ODdrug-exposed wells: absorbance of a well containing a sample […]

Hep G2 (liver cancer) = assay: Evaluation of anticancer action, cell proliferation inhibition (WST-8), Hep G2; type: cell-based; conditions: Homo sapiens, HepG2, Hep G2, about 72 hours
From the text: as §1, §2, §3, §4, §5, §6, §7, §8, §9

Topoisomerase I = biological target: T1, Topoisomerase I (Homo sapiens, UniProt P11387); assay: Topoisomerase I assay; type: biochemical; parameters: key to Inhibitory activity Topoisomerase I: ∘: Inhibitory activity is present; Δ: Weak inhibitory activity is present; x: No inhibitory activity is present
T1 sequence (P11387 1-765): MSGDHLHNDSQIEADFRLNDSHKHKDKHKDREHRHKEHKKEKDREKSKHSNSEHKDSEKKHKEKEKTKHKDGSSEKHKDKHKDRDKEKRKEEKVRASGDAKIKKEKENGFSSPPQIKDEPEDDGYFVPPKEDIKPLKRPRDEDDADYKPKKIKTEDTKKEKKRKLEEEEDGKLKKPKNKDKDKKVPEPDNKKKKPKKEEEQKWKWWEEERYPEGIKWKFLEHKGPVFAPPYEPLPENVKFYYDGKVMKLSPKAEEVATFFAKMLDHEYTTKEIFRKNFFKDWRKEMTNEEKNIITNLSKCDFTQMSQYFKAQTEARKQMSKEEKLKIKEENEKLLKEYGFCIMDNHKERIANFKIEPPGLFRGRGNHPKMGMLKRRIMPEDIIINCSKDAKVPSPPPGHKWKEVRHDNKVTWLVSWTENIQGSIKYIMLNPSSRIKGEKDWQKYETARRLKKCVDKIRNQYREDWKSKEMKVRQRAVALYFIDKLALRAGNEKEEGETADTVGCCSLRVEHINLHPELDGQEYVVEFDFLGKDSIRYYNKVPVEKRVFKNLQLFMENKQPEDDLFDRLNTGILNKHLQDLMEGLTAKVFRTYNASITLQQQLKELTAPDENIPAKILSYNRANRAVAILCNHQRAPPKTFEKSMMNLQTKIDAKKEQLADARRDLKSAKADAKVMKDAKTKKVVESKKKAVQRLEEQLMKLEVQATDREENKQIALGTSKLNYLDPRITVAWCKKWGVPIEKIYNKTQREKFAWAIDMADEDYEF
Description: The inhibitory action of a test substance (Compound 3) on Topoisomerase I and Topoisomerase II was examined.
Topoisomerase I (4 units) was subjected to the following assay performed in the assay conditions, which were determined by a preliminary examination, for a reaction time of 2 hours.
(1) An assay solution was prepared in accordance with the following table.

A549 (lung cancer) = assay: Evaluation of anticancer action, cell proliferation inhibition (WST-8), A549; type: cell-based; conditions: Homo sapiens, A549, about 72 hours
From the text: as §1, §2, §3, §4, §5, §6, §7, §8, §9

Question: For `O=C(Nc1ccc(S(F)(F)(F)(F)F)cc1)c1cc(O)c(O)c(O)c1` [Compound 3, 4-(3,4,5-trihydroxybenzoylamino)pentafluorosulfanylbenzene], which GI50 (MCF-7 (breast cancer)) is on record?
Answer: Its GI50 is 13.6 µg/mL (≈ 36.6 µM).

Question: And the GI50 (Hep G2 (liver cancer))?
Answer: The GI50 was 9.8 µg/mL (≈ 26.4 µM).

Question: And the “Topoisomerase I inhibitory activity” value (Topoisomerase I; 500 μg/mL)?
Answer: Its value is “inhibitory activity was confirmed”.

Question: And the “Inhibitory activity Topoisomerase I” value (Topoisomerase I; final concentration 0.5 μg/mL)?
Answer: The value was “x”.

Question: And the “Inhibitory activity Topoisomerase I” value (Topoisomerase I; final concentration 5 μg/mL)?
Answer: The value was “x”.

Question: What about the “Inhibitory activity Topoisomerase I” value (Topoisomerase I; final concentration 50 μg/mL) of the same molecule?
Answer: Its value is “x”.

Question: What about the “Inhibitory activity Topoisomerase I” value (Topoisomerase I; final concentration 500 μg/mL) of the same molecule?
Answer: Its value is “∘”.

Question: And the GI50 (A549 (lung cancer))?
Answer: Its GI50 is 13.3 µg/mL (≈ 35.8 µM).
